Experimental data taken from the NIST ThermoML archive (doi:10.1021/acs.jced.6b00112).
Numbers after ± are expanded uncertainties.

Experiments:
[1] = refractive index (Na D-line) (dimensionless); settings: 298.15 K; 101.33 kPa; Liquid; Standard Abbe refractometry
[2] = 298.15 K; 101.33 kPa; Liquid; Vibrating tube method

Row | refractive index [1] | mass density [2] | SMILES
1 | 1.3977 ± 0.0008 | 952.68 ± 10 kg/m3 | CCCC(=O)O [butanoic acid]
2 | 1.3324 ± 0.0008 | – | O [water]
3 | 1.3807 ± 0.0008 | 998.04 ± 10 kg/m3 | CCC(=O)O [propanoic acid]
4 | 1.493 ± 0.0008 | 862.51 ± 10 kg/m3 | CCc1ccccc1 [ethylbenzene]
5 | 1.371 ± 0.0008 | 1219.5 ± 10 kg/m3 | O=CO [formic acid]
6 | 1.3714 ± 0.0008 | 1044.12 ± 10 kg/m3 | CC(=O)O [acetic acid]
